Laboratory results as given in patent publication US20260297094A1, “Tetracyclic Compounds as SMARCA2 and/or SMARCA4 Degraders” (Aurigene Oncology Limited, priority 2023, published 2026).
Where a name gives a salt, the structure may show the parent alone.

Assays:
Format in all cases: cell-based
MV-4-11 cells = test: Anti proliferative activity in MV-4-11 cells by Cell Titer Glo (Promega) assay; settings: 3 days, CellTiter-Glo
Experimental: Example-P2: Determination of Anti Proliferative Activity of Compounds in Cell Lines MV-4-11 by Cell Titer Glo® (Promega) Assay
MV-4-11 (CRL-9591™) cells were seeded in 96 well plate flat black clear bottom plates (Corning, Cat. No 3904) using complete DMEM Medium. Next day, selected compounds of the present invention were added to cells from 10 mM stocks made in DMSO (Sigma Cat no. D2650). Each concentration of compound was tested in triplicate with DMSO concentration at a final percentage not exceeding 0.3 in the cells. After the incubation of MV-4-11 cells with compound for 3 days; assay was terminated using 100 μl of CellTiter Glo® reagent (Promega, Cat. no G7572). CellTiter-Glo® Luminescent reagent determines the number of viable cells based on quantitation of ATP present which is an indicator of cell number and metabolic activity. Luminescence readings were taken in Victor-5 instrument. Percent inhibition of proliferation was calculated using formula, % inhibition=100−(luminescence value of test/luminescence value of DMSO control)*100. DMSO control (0%)=Cells in complete media with DMSO; blank=Media alone containing DMSO. EC50 was calculated using graph pad prism software.

SK-MEL-5 cells = test: Anti proliferative activity in SK-MEL-5 cells by Cell Titer Glo (Promega) assay; settings: retreatment on Day 4, terminated on day 8, CellTiter-Glo
Experimental: Example-P1: Determination of Anti Proliferative Activity of Compounds in Cell Lines SK-MEL-5 by Cell Titer Glo® (Promega) Assay
Cells were seeded into 96-well plates and the plate was incubated in 37 degrees incubator overnight. The next day, compounds were diluted 3-fold to cover 9-point concentration range in DMSO. Intermediate plate dilution was prepared in media followed with compound treatment in cells. Retreatment of cells with compound dilutions was performed on Day 4 and assay was terminated on day 8 for SK-MEL-5 cells using CellTiter-Glo and the plate was kept on orbital shaker for 20 minutes at RT. Assay was terminated on day 6 for RERF-LC-A1 without a compound retreatment. Luminescence signal was recorded on VICTOR^3 instrument. Percent inhibition of proliferation was calculated at each concentration and plotted against the compound concentration. EC50 value was calculated using GraphPad® software.

SMARCA2 = biological target: T1, SMARCA2 (Homo sapiens, UniProt P51531); test: SMARCA2 degradation in MV-4-11 cells by Western blot; settings: MV4-11, 16 h, at 100 nM, vs DMSO, read-out: Percent degradation SMARCA2
T1 construct: endogenous in cells; host or cells: MV-4-11 (CRL-9591)
T1 sequence (P51531 whole entry): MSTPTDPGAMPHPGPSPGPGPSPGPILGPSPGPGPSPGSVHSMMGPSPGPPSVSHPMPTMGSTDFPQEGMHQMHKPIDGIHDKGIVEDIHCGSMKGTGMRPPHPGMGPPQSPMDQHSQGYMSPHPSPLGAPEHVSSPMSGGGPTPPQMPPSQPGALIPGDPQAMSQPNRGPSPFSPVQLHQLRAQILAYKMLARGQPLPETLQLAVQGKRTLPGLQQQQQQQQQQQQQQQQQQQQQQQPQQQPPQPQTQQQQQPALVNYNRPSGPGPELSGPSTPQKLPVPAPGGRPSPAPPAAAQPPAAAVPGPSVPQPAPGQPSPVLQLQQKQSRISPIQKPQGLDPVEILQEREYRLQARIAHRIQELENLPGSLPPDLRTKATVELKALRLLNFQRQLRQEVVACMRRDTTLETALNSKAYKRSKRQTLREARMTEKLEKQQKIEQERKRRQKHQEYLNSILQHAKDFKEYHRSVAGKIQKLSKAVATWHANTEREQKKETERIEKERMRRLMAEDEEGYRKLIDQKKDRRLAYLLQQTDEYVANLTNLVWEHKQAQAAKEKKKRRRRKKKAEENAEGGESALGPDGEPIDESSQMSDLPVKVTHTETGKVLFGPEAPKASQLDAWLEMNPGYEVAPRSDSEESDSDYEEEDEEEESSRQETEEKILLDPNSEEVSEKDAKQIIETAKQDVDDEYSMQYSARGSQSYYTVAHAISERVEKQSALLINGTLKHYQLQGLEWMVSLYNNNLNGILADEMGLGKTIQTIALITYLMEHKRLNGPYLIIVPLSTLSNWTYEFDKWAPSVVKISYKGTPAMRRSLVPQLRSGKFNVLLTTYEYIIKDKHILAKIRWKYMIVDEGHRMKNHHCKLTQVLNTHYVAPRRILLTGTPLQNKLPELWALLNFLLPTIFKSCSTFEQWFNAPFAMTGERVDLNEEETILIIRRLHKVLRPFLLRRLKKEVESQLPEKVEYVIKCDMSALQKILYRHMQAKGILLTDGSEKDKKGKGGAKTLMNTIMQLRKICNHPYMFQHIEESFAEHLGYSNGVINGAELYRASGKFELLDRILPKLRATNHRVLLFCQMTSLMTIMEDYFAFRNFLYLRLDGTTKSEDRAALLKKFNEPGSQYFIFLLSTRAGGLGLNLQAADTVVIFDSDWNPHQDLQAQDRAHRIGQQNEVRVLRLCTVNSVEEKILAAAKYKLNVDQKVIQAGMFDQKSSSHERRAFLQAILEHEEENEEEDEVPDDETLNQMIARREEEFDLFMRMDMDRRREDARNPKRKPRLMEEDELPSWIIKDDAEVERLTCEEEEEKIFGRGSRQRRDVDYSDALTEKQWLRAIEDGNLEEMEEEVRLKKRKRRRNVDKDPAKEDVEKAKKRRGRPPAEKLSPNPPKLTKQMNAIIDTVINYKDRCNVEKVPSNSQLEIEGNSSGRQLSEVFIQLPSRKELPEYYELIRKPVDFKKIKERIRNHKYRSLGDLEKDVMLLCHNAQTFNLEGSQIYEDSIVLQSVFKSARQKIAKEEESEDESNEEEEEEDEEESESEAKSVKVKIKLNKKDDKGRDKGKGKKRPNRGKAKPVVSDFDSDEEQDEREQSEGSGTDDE
Experimental: Example-P3: Determination of SMARCA2 and SMARCA4 Degradation in MV-4-11 Cells by Western Blot
MV-4-11 (CRL-9591™) cells were plated in 6 well plates using complete Iscove's Modified Dulbecco's Medium. On the third day, compounds of present invention were added to cells from 10 mM stocks made in DMSO (Sigma Cat no. D2650). Each concentration of compound was tested with DMSO not exceeding final percentage of 0.1 in the cells. Cells were incubated with the compound for 16 hours followed by harvesting with 1×RIPA lysis buffer (Thermo Fischer, catalogue number #89900) containing protease inhibitor cocktail (Sigma catalogue number #P-8340). Equal amount of protein was loaded on SDS PAGE gel for electrophoresis. Western blot was carried out for detection of either SMARCA2 (Cell signalling technologies, catalogue number #11966) or SMARCA4 antibody (Cell signalling technologies, catalogue number #52251). Beta-Tubulin antibody (Cell signalling technologies, catalogue number #86298) was used as loading control. Percentage of SMARCA2 or SMARCA4 degradation was calculated using formula % Degradation=100−(normalized band intensity in treated sample/normalized band intensity in DMSO sample)*100. Here, “ND” refers to Not determined.

EC50 (MV-4-11 cells; Homo sapiens, MV4-11, 72 h) [nM]	EC50 (SK-MEL-5 cells; Homo sapiens) [nM]	inhibition at 0.1 µM (SMARCA2) [%]	EC50 (MV-4-11 cells) [nM]	EC50 (SK-MEL-5 cells) [nM]	Structure (SMILES)
> 100	> 100				O=C1CCC(Nc2ccc(C3CCN(C4CCN(c5ccc6c(c5)n(C5CCCC5)c5nc(=O)c7c(O)cccc7n65)CC4)CC3)c(F)c2)C(=O)N1 (stereo not shown) [Compound 12, 3-((4-(1′-(7-cyclopentyl-4-hydroxy-5-oxo-5,7-dihydrobenzo[4,5]imidazo[1,2-a]quinazolin-9-yl)-[1,4′-bipiperidin]-4-yl)-3-fluorophenyl)amino)piperidine-2,6-dione-HCl salt]
> 100	> 100				O=C1CCC(NC(=O)c2ccc(C3CCN(C4CCN(c5ccc6c(c5)n(C5CCCC5)c5nc(=O)c7c(Cl)cccc7n65)CC4)CC3)cc2F)C(=O)N1 (stereo not shown) [Compound 39, 4-(1′-(4-chloro-7-cyclopentyl-5-oxo-5,7-dihydrobenzo[4,5]imidazo[1,2-a]quinazolin-9-yl)-[1,4′-bipiperidin]-4-yl)-N-(2,6-dioxopiperidin-3-yl)-2-fluorobenzamide]
> 100	> 100	21			Cn1c2cc(N3CCN(C4CN(c5ccc6c(c5)C(=O)N(C5CCC(=O)NC5=O)C6=O)C4)CC3)ccc2n2c3cccc(N)c3c(=O)nc12 (stereo not shown) [Compound 45, 5-(3-(4-(4-amino-7-methyl-5-oxo-5,7-dihydrobenzo[4,5]imidazo[1,2-a]quinazolin-9-yl)piperazin-1-yl)azetidin-1-yl)-2-(2,6-dioxopiperidin-3-yl)isoindoline-1,3-dione]
			< 10	< 10	O=C1CCC(Nc2ccc(C3CCN(C4CCN(c5ccc6c(c5)n(C5CCCC5)c5nc(=O)c7c(Cl)cccc7n65)CC4)CC3)c(F)c2)C(=O)N1 (stereo not shown) [Compound 38, 3-((4-(1′-(4-chloro-7-cyclopentyl-5-oxo-5,7-dihydrobenzo[4,5]imidazo[1,2-a]quinazolin-9-yl)-[1,4′-bipiperidin]-4-yl)-3-fluorophenyl)amino)piperidine-2,6-dione]
> 100	> 100	48			Cn1c2cc(N3CCC(N4CCN(c5ccc(NC6CCC(=O)NC6=O)cc5F)CC4)CC3)ccc2n2c3cccc(N)c3c(=O)nc12 (stereo not shown) [Compound 40, 3-((4-(4-(1-(4-amino-7-methyl-5-oxo-5,7-dihydrobenzo[4,5]imidazo[1,2-a]quinazolin-9-yl)piperidin-4-yl)piperazin-1-yl)-3-fluorophenyl)amino)piperidine-2,6-dione]
> 100	< 10				CC(C)n1c2cc(N3CCC(N4CCN(c5ccc(NC6CCC(=O)NC6=O)cc5F)CC4)CC3)ccc2n2c3cccc(Cl)c3c(=O)nc12 (stereo not shown) [Compound 47, 3-((4-(4-(1-(4-chloro-7-isopropyl-5-oxo-5,7-dihydrobenzo[4,5]imidazo[1,2-a]quinazolin-9-yl)piperidin-4-yl)piperazin-1-yl)-3-fluorophenyl)amino)piperidine-2,6-dione]

Further lines, the molecule ahead of its results:

Structure (SMILES)	EC50 (MV-4-11 cells; Homo sapiens, MV4-11, 72 h) [nM]	EC50 (SK-MEL-5 cells; Homo sapiens) [nM]	inhibition at 0.1 µM (SMARCA2) [%]	EC50 (MV-4-11 cells) [nM]	EC50 (SK-MEL-5 cells) [nM]
Cn1c2cc(-c3ccc(N4CCN(c5ccc(NC6CCC(=O)NC6=O)cc5F)CC4)cc3)ccc2n2c3cccc(N)c3c(=O)nc12 (stereo not shown) [Compound 49, 3-((4-(4-(4-(4-amino-7-methyl-5-oxo-5,7-dihydrobenzo[4,5]imidazo[1,2-a]quinazolin-9-yl)phenyl)piperazin-1-yl)-3-fluorophenyl)amino)piperidine-2,6-dione]	> 100	> 100			
Nc1cccc2c1c(=O)nc1[nH]c3cc(N4CCC(N5CCC(c6ccc(C7CCC(=O)NC7=O)cc6)CC5)CC4)ccc3n12 (stereo not shown) [Compound 31, 3-(4-(1′-(4-amino-5-oxo-5,7-dihydrobenzo[4,5]imidazo[1,2-a]quinazolin-9-yl)-[1,4′-bipiperidin]-4-yl)phenyl)piperidine-2,6-dione-TFA salt]	> 100	> 100			
O=C1CCC(c2ccc(C3CCN(C4CCN(c5ccc6c(c5)n(C5CCCC5)c5nc(=O)c7c(C(F)(F)F)cccc7n65)CC4)CC3)cc2)C(=O)N1 (stereo not shown) [Compound 13, 3-(4-(1′-(7-cyclopentyl-5-oxo-4-(trifluoromethyl)-5,7-dihydrobenzo[4,5]imidazo[1,2-a]quinazolin-9-yl)-[1,4′-bipiperidin]-4-yl)phenyl)piperidine-2,6-dione]	> 100	> 100			
O=C1CCC(c2ccc(C3CCN(C4CCN(c5ccc6c(c5)n(C5CCCC5)c5nc(=O)c7ncccc7n65)CC4)CC3)cc2)C(=O)N1 (stereo not shown) [Compound 24, 3-(4-(1′-(7-cyclopentyl-5-oxo-5,7-dihydrobenzo[4,5]imidazo[1,2-a]pyrido[2,3-e]pyrimidin-9-yl)-[1,4′-bipiperidin]-4-yl)phenyl)piperidine-2,6-dione]	> 100	> 100			
CC(C)n1c2cc(N3CCC(N4CCN(c5ccc6c(c5)CN(C5CCC(=O)NC5=O)C6=O)CC4)CC3)ccc2n2c3cccc(Cl)c3c(=O)nc12 (stereo not shown) [Compound 48, 3-(5-(4-(1-(4-chloro-7-isopropyl-5-oxo-5,7-dihydrobenzo[4,5]imidazo[1,2-a]quinazolin-9-yl)piperidin-4-yl)piperazin-1-yl)-1-oxoisoindolin-2-yl)piperidine-2,6-dione]	> 100	< 10			
CC(C)n1c2cc(-c3ccc(N4CCN(c5ccc(NC6CCC(=O)NC6=O)cc5F)CC4)cc3)ccc2n2c3cccc(Cl)c3c(=O)nc12 (stereo not shown) [Compound 50, 3-((4-(4-(4-(4-chloro-7-isopropyl-5-oxo-5,7-dihydrobenzo[4,5]imidazo[1,2-a]quinazolin-9-yl)phenyl)piperazin-1-yl)-3-fluorophenyl)amino)piperidine-2,6-dione.TFA]	> 100	> 100			
Nc1cccc2c1c(=O)nc1n(C3CC3)c3cc(N4CCC(N5CCN(c6ccc(NC7CCC(=O)NC7=O)cc6F)CC5)CC4)ccc3n21 (stereo not shown) [Compound 37, 3-((4-(4-(1-(4-amino-7-cyclopropyl-5-oxo-5,7-dihydrobenzo[4,5]imidazo[1,2-a]quinazolin-9-yl)piperidin-4-yl)piperazin-1-yl)-3-fluorophenyl)amino)piperidine-2,6-dione]	> 100	> 100			
O=C1CCC(Nc2ccc(C3CCN(C4CCN(c5ccc6c(c5)[nH]c5nc(=O)c7c(Br)cccc7n56)CC4)CC3)c(F)c2)C(=O)N1 (stereo not shown) [Compound 34, 3-((4-(1′-(4-bromo-5-oxo-5,7-dihydrobenzo[4,5]imidazo[1,2-a]quinazolin-9-yl)-[1,4′-bipiperidin]-4-yl)-3-fluorophenyl)amino)piperidine-2,6-dione]	> 100	> 100			
Cn1c2cc(N3CCC(N4CCN(c5ccc(NC6CCC(=O)NC6=O)cc5F)CC4)CC3)ccc2n2c3cccc(Cl)c3c(=O)nc12 (stereo not shown) [Compound 46, 3-((4-(4-(1-(4-chloro-7-methyl-5-oxo-5,7-dihydrobenzo[4,5]imidazo[1,2-a]quinazolin-9-yl)piperidin-4-yl)piperazin-1-yl)-3-fluorophenyl)amino)piperidine-2,6-dione]	> 100	< 10			
CC(C)n1c2cc(N3CCC(N4CCN(c5ccc(C6CCC(=O)NC6=O)cc5)CC4)CC3)ccc2n2c3cccc(N)c3c(=O)nc12 (stereo not shown) [Compound 44, 3-(4-(4-(1-(4-amino-7-isopropyl-5-oxo-5,7-dihydrobenzo[4,5]imidazo[1,2-a]quinazolin-9-yl)piperidin-4-yl)piperazin-1-yl)phenyl)piperidine-2,6-dione]	> 100	> 100	16		
Cn1c2cc(N3CCC(N4CCN(c5ccc6c(c5)CN(C5CCC(=O)NC5=O)C6=O)CC4)CC3)ccc2n2c3cccc(N)c3c(=O)nc12 (stereo not shown) [Compound 42, 3-(5-(4-(1-(4-amino-7-methyl-5-oxo-5,7-dihydrobenzo[4,5]imidazo[1,2-a]quinazolin-9-yl)piperidin-4-yl)piperazin-1-yl)-1-oxoisoindolin-2-yl)piperidine-2,6-dione]	> 100	> 100			
